# Test results: PubChem BioAssay (NCI)
#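 Assay format: 96-well plates, 48-hour exposure. GI50 is the concentration that inhibits growth by half. TGI: total growth inhibition.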
# Legend:
# Experiment in all cases: inhibition of tumour cell growth, NCI panel, 48 h
# [1] = tested on: K-562 leukemia
# [2] = tested on: RPMI-8226 leukemia
# [3] = tested on: 786-0 renal
# [4] = tested on: MDA-MB-231 breast
# [5] = tested on: A549 NSCLC
# [6] = tested on: MCF7 breast
# [7] = tested on: SF-268 CNS
# [8] = tested on: TK-10 renal
# [9] = tested on: NCI-H226 lung
# [10] = tested on: BT-549 breast
# [11] = tested on: NCI-H460 lung
# [12] = tested on: COLO 205 colon
# [13] = tested on: MOLT-4 leukemia
# [14] = tested on: HCC-2998 colon
# [15] = tested on: CCRF-CEM leukemia
# [16] = tested on: U251 CNS
# [17] = tested on: SK-MEL-5 melanoma
# [18] = tested on: OVCAR-8 ovarian
# [19] = tested on: T-47D breast
# [20] = tested on: UO-31 renal
# [21] = tested on: SF-539 CNS
# [22] = tested on: M14 melanoma
# [23] = tested on: HCT-116 colon
# [24] = tested on: SN12C renal
# [25] = tested on: SR leukemia
# [26] = tested on: MDA-MB-435
# [27] = tested on: ACHN renal
# [28] = tested on: SK-MEL-28 melanoma
# [29] = tested on: RXF 393 renal
# [30] = tested on: OVCAR-4 ovarian
# [31] = tested on: SF-295 CNS
# [32] = tested on: PC-3 prostate
# [33] = tested on: DU-145 prostate
# [34] = tested on: MDA-MB-468 breast
# [35] = tested on: OVCAR-3 ovarian
# [36] = tested on: SW-620 colon
# [37] = tested on: SNB-19 CNS
# [38] = tested on: HOP-62 NSCLC
# [39] = tested on: UACC-62 melanoma
# [40] = tested on: EKVX NSCLC
# [41] = tested on: HS 578T breast
# [42] = tested on: A498 renal
# [43] = tested on: HOP-92 NSCLC
# [44] = tested on: NCI-H23 lung
# [45] = tested on: LOX IMVI melanoma
# [46] = tested on: CAKI-1 renal
# [47] = tested on: HCT-15 colon
# [48] = tested on: KM12 colon
# [49] = tested on: IGROV1 ovarian
# [50] = tested on: UACC-257 melanoma
# [51] = tested on: NCI/ADR-RES ovarian
# [52] = tested on: SK-OV-3 ovarian
# [53] = tested on: HT29 colon
# [54] = tested on: NCI-H522 lung
# [55] = tested on: SK-MEL-2 melanoma
# [56] = tested on: MALME-3M melanoma
# [57] = tested on: OVCAR-5 ovarian
structure (smiles),measurement,setting,value
COc1ccccc1/C=C/C(=O)c1ccc(OC)c(S(N)(=O)=O)c1,GI50,[1],0.349 µM
same,TGI,[1],14.6 µM
same,GI50,[2],2.49 µM
same,TGI,[2],7.46 µM
same,GI50,[3],3.25 µM
same,TGI,[3],12.9 µM
same,GI50,[4],2.72 µM
same,TGI,[4],7.47 µM
same,GI50,[5],3.11 µM
same,TGI,[5],13 µM
same,GI50,[6],2.67 µM
same,TGI,[6],11.3 µM
same,GI50,[7],3.28 µM
same,TGI,[7],12 µM
same,GI50,[8],3.54 µM
same,TGI,[8],13 µM
same,GI50,[9],3.96 µM
same,TGI,[9],15.5 µM
same,GI50,[10],2.58 µM
same,TGI,[10],8.21 µM
same,GI50,[11],2.09 µM
same,TGI,[11],5.51 µM
same,GI50,[12],3.54 µM
same,TGI,[12],13.4 µM
same,GI50,[13],2.4 µM
same,TGI,[13],8.35 µM
same,GI50,[14],2.65 µM
same,TGI,[14],12 µM
same,GI50,[15],2.53 µM
same,TGI,[15],6.81 µM
same,GI50,[16],2.58 µM
same,TGI,[16],10.7 µM
same,GI50,[17],3.85 µM
same,TGI,[17],14.2 µM
same,GI50,[18],2.36 µM
same,TGI,[18],7.16 µM
same,GI50,[19],3.25 µM
same,TGI,[19],12.3 µM
same,GI50,[20],2.9 µM
same,TGI,[20],13.4 µM
same,GI50,[21],2.25 µM
same,TGI,[21],4.96 µM
same,GI50,[22],2.71 µM
same,TGI,[22],11.8 µM
same,GI50,[23],2.49 µM
same,TGI,[23],9.38 µM
same,GI50,[24],2.79 µM
same,TGI,[24],10.4 µM
same,GI50,[25],1.44 µM
same,TGI,[25],6.2 µM
same,GI50,[26],2.98 µM
same,TGI,[26],11.5 µM
same,GI50,[27],3.38 µM
same,TGI,[27],12.4 µM
same,GI50,[28],4.49 µM
same,TGI,[28],15.8 µM
same,GI50,[29],2.35 µM
same,TGI,[29],8.86 µM
same,GI50,[30],3.65 µM
same,TGI,[30],16.4 µM
same,GI50,[31],2.66 µM
same,TGI,[31],10.6 µM
same,GI50,[32],4.81 µM
same,TGI,[32],18.5 µM
same,GI50,[33],3.22 µM
same,TGI,[33],12 µM
same,GI50,[34],2.04 µM
same,TGI,[34],5.91 µM
same,GI50,[35],2.23 µM
same,TGI,[35],5.05 µM
same,GI50,[36],2.86 µM
same,TGI,[36],10.8 µM
same,GI50,[37],4.02 µM
same,TGI,[37],15.3 µM
same,GI50,[38],2.88 µM
same,TGI,[38],10.3 µM
same,GI50,[39],2.95 µM
same,TGI,[39],12.3 µM
same,GI50,[40],3.58 µM
same,TGI,[40],14.1 µM
same,GI50,[41],3.27 µM
same,TGI,[41],20 µM
same,GI50,[42],10.6 µM
same,TGI,[42],22.6 µM
same,GI50,[43],2.08 µM
same,TGI,[43],8.78 µM
same,GI50,[44],2.29 µM
same,TGI,[44],9.56 µM
same,GI50,[45],1.98 µM
same,TGI,[45],5.27 µM
same,GI50,[46],3.18 µM
same,TGI,[46],13 µM
same,GI50,[47],1.99 µM
same,TGI,[47],10.5 µM
same,GI50,[48],2.89 µM
same,TGI,[48],10 µM
same,GI50,[49],3.08 µM
same,TGI,[49],11.5 µM
same,GI50,[50],5.96 µM
same,TGI,[50],19.6 µM
same,GI50,[51],2.29 µM
same,TGI,[51],6.68 µM
same,GI50,[52],7.25 µM
same,TGI,[52],20.4 µM
same,GI50,[53],3.06 µM
same,TGI,[53],10.2 µM
same,GI50,[54],2.12 µM
same,TGI,[54],6.58 µM
same,GI50,[55],10.4 µM
same,TGI,[55],22.3 µM
same,GI50,[56],3.99 µM
same,TGI,[56],16.2 µM
same,GI50,[57],2.2 µM
same,TGI,[57],6.14 µM
